# Read-outs that look alike come from different tables or passages of the source.
# Experiments:
# [1] = test system: E. faecalis (ATCC 29212); assay: microbe, parasite or virus in culture; type: cell-based; details: Enterococcus faecalis, ATCC29212, MHB, 2–5 × 10^5 CFU/mL, 16–18 h, 37 °C, read-out: Minimum inhibitory concentration, MIC
# Experimental: (§1) The antibacterial activity was evaluated as MIC using slight modifications to a serial broth micro dilution method as reported previously[66],[67]. Briefly, to each treatment well of the 96-well plate (Corning Incorporated, USA) 10 μL of peptidomimetic/antibiotic was added and subsequently diluted serial 2-fold in 0.2% BSA (in 0.01% acetic acid). Then to each well of the first 11 columns 100 μL of mid-log phase bacterial suspension in MHB medium was added to get 2–5 × 10^5 CFU/mL. Cultures without test peptidomimetics/antibiotics were used as growth control. Uninoculated MHB medium was used as negative control. The microtitre plates were incubated overnight with agitation (180 rpm) at 37 °C. After 16–18 h incubation, absorbance was read at 600 nm using an ELISA plate reader (Molecular Devices, Sunnyvale, CA, USA). The experiments were carried out in duplicate on at least three different days.
# [2] = test system: Vancomycin-resistant E. faecium (ATCC 700221); assay: microbe, parasite or virus in culture; type: cell-based; details: Enterococcus faecium, ATCC700221, MHB, 2–5 × 10^5 CFU/mL, 16–18 h, 37 °C, read-out: Minimum inhibitory concentration, MIC
# Experimental: as §1
# [3] = test system: MRSA ATCC 33591; assay: Cell viability corresponding to membrane depolarization experiment; type: cell-based, Staphylococcus aureus; details: dye-loaded cells in HEPES-glucose buffer, 4 × MIC, 2 min incubation
# Experimental: Briefly, exponential phase cells grown in MHB were harvested by centrifugation, washed and re-suspended in respiration buffer (5 mM HEPES, 20 mM glucose, pH 7.2) to 2.5 × 10^6 CFU/mL. […] The dye-loaded cells (800 μL) were then treated with peptidomimetics at respective 1× and 4× MIC concentrations (2–20 μL) and consequent fluorescence increase after 2 min of addition was measured in a Shimadzu RF-5301 PC spectrofluorimeter. As controls IL, melittin and VAN were also assayed under identical conditions. […] The viability of dye-loaded cells corresponding to depolarization experiment at 4 × MIC concentration was also measured by plating the diluted aliquots onto BHI agar plates.
# Cell viability corresponding to membrane depolarization experiment.
# dye-loaded cells suspended in HEPES-glucose buffer (5 mM, 20 mM glucose, pH 7.2)
# were incubated with different test agents for 2 min and subsequently diluted
# appropriately and plated on BHI agar plates. The plates were incubated at 37 °C for 16-
# 18 h and colonies were counted. The experiment was repeated on two different days
# [4] = test system: MRSA ATCC 33591; assay: Membrane permeabilization assay, calcein-AM dye release, flow cytometry; type: cell-based, Staphylococcus aureus; details: PBS, 37 °C, mean ± S.D., two days
# Experimental: To assess the effect of designed peptidomimetics on membrane integrity of MRSA ATCC 33591 strain a calcein-AM dye release experiment was performed using the protocol described previously with slight modifications. Briefly, exponential phase MRSA ATCC 33591 culture was prepared in MHB medium as mentioned earlier and adjusted to OD600 = 1 (~10^9 CFU/mL) in PBS (10 mM sodium phosphate, 150 mM NaCl, pH 7.4). Thereafter, the cells were incubated at 37 °C with calcein-AM (2 μg/mL) in 10% MHB medium for 2 h. The calcein-loaded cells were washed once and re-suspended in PBS to OD600 = 0.5 (~10^8 CFU/mL). […] Subsequently, calcein fluorescence was measured via flow cytometry (Becton Dickinson (BD) FACS verse, San Jose, CA) with excitation and emission wavelengths of 488 nm and 530 ± 30 nm, respectively. For each sample, 10,000 cells were acquired. As a positive control, melittin (10 μM) was assayed under identical conditions. The experiment was repeated on two different days and mean ± S.D. is presented here. Corresponding to leakage a viability assay at 4 × MIC of respective test agents was also performed by incubating samples for 2 h at 37 °C and plating the diluted aliquots on BHI agar plates.
# [5] = test system: MRSA ATCC 33591; assay: Membrane depolarization assay, DiSC3(5); type: cell-based, Staphylococcus aureus; details: for % depolarization relative to melittin control (10 μM, set as 100%): 2 min, DiSC3(5), HEPES-glucose buffer pH 7.2, 37 °C, mean ± S.D., two days
# Experimental: The cytoplasmic membrane depolarization in MRSA ATCC 33591 strain was measured using membrane potential sensitive dye 3,3′-dipropylthiacarbocyanine iodide (DiSC3(5)) with a protocol described previously with slight modifications[23],[48]. Briefly, exponential phase cells grown in MHB were harvested by centrifugation, washed and re-suspended in respiration buffer (5 mM HEPES, 20 mM glucose, pH 7.2) to 2.5 × 10^6 CFU/mL. The cells were divided into 1 mL aliquots and incubated with 3.6 μM of DiSC3(5) (in dark) for 30 min to get steady baseline fluorescence intensity. The dye-loaded cells (800 μL) were then treated with peptidomimetics at respective 1× and 4× MIC concentrations (2–20 μL) and consequent fluorescence increase after 2 min of addition was measured in a Shimadzu RF-5301 PC spectrofluorimeter. As controls IL, melittin and VAN were also assayed under identical conditions. The samples were excited at 622 nm and emission was recorded between 650–700 nm with 3 nm slit width for both excitation and emission. The temperature was maintained at 37 °C throughout the experiment. Depolarization kinetics was measured at 4 × MIC of test agents for 5 min. The experiment was repeated on two different days and for Fig. 3 panel (A) mean ± S.D. data for % depolarization relative to melittin control (10 μM) set as 100% is presented here. For panel (B) representative data is shown here. The viability of dye-loaded cells corresponding to depolarization experiment at 4 × MIC concentration was also measured by plating the diluted aliquots onto BHI agar plates.
# [6] = test system: MRSA ATCC 33591; assay: microbe, parasite or virus in culture; type: cell-based, Staphylococcus aureus; details: Staphylococcus aureus, MRSA ATCC 33591, read-out: Minimum inhibitory concentration, MIC
# Experimental: An initial inoculum of mid-log phase 10^7 CFU/mL was used and MIC experiment was performed as described earlier. For serum/plasma stability assay a method as described previously was used with slight modifications. Briefly, 50 μL MHB medium containing desired concentration of test peptidomimetics was incubated with 50 µL mice plasma/fetal bovine serum for 3 h at 37 °C. After incubation, a 10 μL aliquot was taken out for MIC determination as described above. For the experiment, mid-log phase 2–5 × 10^5 CFU/mL were used as initial inoculum. For the growth control wells, an equivalent amount of plasma/FBS in the medium was also added to evaluate their effect on the viability of cells. A slight decrease in OD600 of cells incubated with mice plasma was observed compared to untreated growth control in MHB alone. The experiments were repeated on two different days and reproducible MIC values were observed.
# [7] = test system: MRSA ATCC 33591; assay: Resistance development over 17 serial passages at sub-MIC; type: cell-based, Staphylococcus aureus; details: at the 11th passage, constant up to the 17th passage
# Experimental: For the experiment, a method as described previously was used with slight modifications. Briefly, for the experiment, on day 1 the initial MICs of all test agents were determined using routine MIC experiment protocol as described earlier. Next day, bacterial cells (100 μL) from the wells with concentrations 2–4 fold less than the MIC value for each test agent were used to set up fresh mid-log phase cultures in MHB medium for setting up the MIC plate. This was repeated for a total of 17 sub-lethal treatments with each antimicrobial agent. For every passage, corresponding glycerol stocks (15% v/v) were made for each culture and were kept at −80 °C for future use.
compound,measurement,setting,value
"CN[C@H](CC(C)C)C(=O)N[C@H]1C(=O)N[C@@H](CC(N)=O)C(=O)N[C@H]2C(=O)N[C@H]3C(=O)N[C@H](C(=O)N[C@H](C(=O)O)c4cc(O)cc(O)c4-c4cc3ccc4O)[C@H](O)c3ccc(c(Cl)c3)Oc3cc2cc(c3O[C@@H]2O[C@H](CO)[C@@H](O)[C@H](O)[C@H]2O[C@H]2C[C@](C)(N)[C@H](O)[C@H](C)O2)Oc2ccc(cc2Cl)[C@H]1O [VAN, vancomycin]",MIC,[1],1.4 µg/mL
same,MIC,[2],> 45.4 µg/mL
same,log reduction in viability relative to untreated control,[3],0.6 log
same,% calcein leakage,"[4]; at 4 × MIC, 2 min incubation",did not cause any leakage
same,% calcein leakage,"[4]; at 4 × MIC, 2 h incubation",11.9 ± 9.2%
same,% calcein leakage,"[4]; at MIC, 2 min incubation",1.6 ± 2.3%
same,Depolarization kinetics: time to increase in relative fluorescence intensity (RFI),"[5]; 4 × MIC, monitored for 5 min",RFI values similar to untreated control cells
same,"% depolarization relative to melittin control (10 μM, set as 100%)",[5]; at 4 × MIC,4.7 ± 4.1%
same,"% depolarization relative to melittin control (10 μM, set as 100%)",[5]; at MIC,2.9 ± 4.8%
same,MIC,"[6]; after 3 h pre-incubation at 37 °C with fetal bovine serum (50%, v/v), inoculum 2–5 × 10^5 CFU/mL, repeated on two days",1.4 µg/mL
same,MIC,"[6]; after 3 h pre-incubation at 37 °C with mice plasma (50%, v/v), inoculum 2–5 × 10^5 CFU/mL, repeated on two days",1.4 µg/mL
same,MIC,"[6]; initial inoculum 10^7 CFU/mL, mid-log phase",2.8 µg/mL
same,fold increase in MIC,[7],8 fold
